Assay results as given in US10328113B2, “Method for preventing or treating an allergic disease using extract from illicium verum” (Korea Institute of Oriental Medicine, priority 2012, dated 2019).

Columns and labels:
IL-4 = IL-4 secretion inhibition, PMA and A23187-stimulated MC/9 mast cells (ELISA); assay type: cell-based; details: Mus musculus, Mast cell; positive control 10 nM; PMA + A23187, 7 hr; read-out: Inhibition rate of IL-4 (%)
Procedure: (§1) MC/9 mouse mast cells seeded in a 96-well plate were treated with 20 nM PMA (Phorbol Myristate Acetate) and 0.5 μM or 1 μM calcium ionophore A23187, together with various concentrations of the Illicium verum extract (0, 25, 50, 100, 200 and 400 μg/ml). […] Seven hour later, the secreted amount of cytokines in medium was measured using the ELISA kit (R&D systems Inc., Minneapolis, USA). The 100% activity was calculated with referring to difference of the secreted cytokine amount between the untreated group and the treated group with PMA and A23187.
(§2) The secretion amount was calculated as follows: [1−(the amount of the secreted cytokine in the treated group−the amount of the secreted cytokine in the untreated group)/(the amount of secreted […] in the untreated group]×100.
(§3) The inhibition rate was calculated as follows: [1−(the amount of the secreted cytokine in the treated group−the amount of the secreted cytokine in the untreated group)/(the amount of secreted cytokine in positive control−the amount of the secreted cytokine in the untreated group]×100.
(§4) All data were expressed as mean±standard deviation. Student's t-test was used to examine differences among groups and the data with p<0.05 were considered as statistically significant.

IL-8 = IL-8 secretion inhibition, PMA and A23187-stimulated MC/9 mast cells (ELISA); assay type: cell-based; details: Mus musculus, Mast cell; positive control 10 nM; PMA + A23187, 7 hr; read-out: Inhibition rate of IL-8 (%)
Procedure: as §1, §2, §3, §4

For `C[C@@H]1C[C@H]2[C@@H]3CCC4=CC(=O)C=C[C@]4(C)[C@@]3(F)[C@@H](O)C[C@]2(C)[C@@]1(O)C(=O)CO` [Dex, dexamethasone], the inhibition at 0.01 µM (IL-4) was 0.4% and the inhibition at 0.01 µM (IL-8) was 23%.
